# Assay results from US20260347338A1, “PYRIMIDINE/PYRIDINE DERIVATIVES OR SALTS THEREOF AND PHARMACEUTICAL COMPOSITIONS COMPRISING THE SAME” (YUHAN CORPORATION, priority 2023, published 2026).
# Structures can show the parent of a compound that is named as a salt.
# Molecular target: T1, human recombinant HPK1 (Homo sapiens, UniProt Q92918)
# T1 construct: purchased BPS Bioscience
# Test: Inhibitory activity against human recombinant HPK1 (TR-FRET)
# Assay type: biochemical
# Conditions: ULight-p70S6K peptide, ATP at Km, room temperature, 1 hour, 0.32 to 1000 nM compound
# Experimental: Test Example: Evaluation of Inhibitory Activity Against Human Recombinant HPK1
# The inhibitory activity against human recombinant HPK1 was evaluated using the Time-Resolved Fluorescence Resonance Energy Transfer (TR-FRET) technology of Perkin-Elmer. The test compound was prepared as a 20 mM stock solution with dimethyl sulfoxide (DMSO), serially diluted in a buffer solution, and used at final compound concentrations of 0.32 to 1000 nM. The evaluation of inhibitory activity was carried out at room temperature, using recombinant human HPK1 (BPS Bioscience). Briefly, recombinant human HPK1, serially diluted each test compound, ULight-p70S6K peptide substrate (PerkinElmer), and ATP at each concentration (Km and final concentration) were added to a kinase buffer solution (50 mM HEPES pH 7.4, 10 mM MgCl2, 1 mM EGTA, 3 mM MnCl2, 2 mM DTT, and 0.01% Tween-20). The resulting mixture was added to each well of a 384-well plate (Optiplate™ 384, white, PerkinElmer). The enzyme reaction was carried out at room temperature for 1 hour. After the reaction was suspended by adding 4 μL of a stop solution (10 mM EDTA) thereto, the mixture was stirred for 1 minute and then a detection solution containing Europium-labeled anti-phosphopeptide antibody (final concentration: 2 nM, PerkinElmer) was added thereto. The signals of TR-FRET at excitation wavelength (320 nm) and emission wavelength (665 nm) were detected using a microplate reader (Envision Multilabel Reader, Perkin-Elmer). Inhibition by the test compound was measured as % inhibition in the signals, compared to the control group treated with DMSO only. The IC50 value of each compound was calculated using the GraphPad Prism program (GraphPad Software, Inc., San Diego, CA, USA). The IC50 values of test compounds for inhibitory activity against HPK1 were classified as follows: • A: IC50≤10 nM • B: 10 nM<IC50≤50 nM • C: 50 nM<IC50≤100 nM • D: IC50>100 nM
# T1 sequence (Q92918 whole entry): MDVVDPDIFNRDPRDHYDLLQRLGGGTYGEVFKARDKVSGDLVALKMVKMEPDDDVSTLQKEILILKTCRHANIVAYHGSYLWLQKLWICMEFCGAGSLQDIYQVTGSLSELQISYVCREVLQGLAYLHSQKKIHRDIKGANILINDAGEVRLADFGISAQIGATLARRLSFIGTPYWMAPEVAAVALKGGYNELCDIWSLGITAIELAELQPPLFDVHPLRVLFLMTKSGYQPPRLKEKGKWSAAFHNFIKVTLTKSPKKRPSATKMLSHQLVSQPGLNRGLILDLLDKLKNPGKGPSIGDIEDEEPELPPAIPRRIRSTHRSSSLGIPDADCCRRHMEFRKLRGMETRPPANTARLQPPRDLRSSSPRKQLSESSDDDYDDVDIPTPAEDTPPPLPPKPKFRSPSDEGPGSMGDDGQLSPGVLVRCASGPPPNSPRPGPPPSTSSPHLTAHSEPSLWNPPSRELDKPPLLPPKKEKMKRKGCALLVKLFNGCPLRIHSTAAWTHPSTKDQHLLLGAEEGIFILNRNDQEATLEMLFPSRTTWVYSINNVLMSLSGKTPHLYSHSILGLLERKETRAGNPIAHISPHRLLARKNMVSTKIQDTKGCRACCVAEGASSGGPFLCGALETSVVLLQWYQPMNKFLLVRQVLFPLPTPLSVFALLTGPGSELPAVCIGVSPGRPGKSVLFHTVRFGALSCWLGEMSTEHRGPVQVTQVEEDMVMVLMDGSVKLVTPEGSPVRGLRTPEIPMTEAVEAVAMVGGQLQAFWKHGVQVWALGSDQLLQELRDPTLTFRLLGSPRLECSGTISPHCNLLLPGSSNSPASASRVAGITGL
row,Compound,IC50
1,"COc1cccc(F)c1-c1nc(Nc2cc(N3CCC[C@H](O)C3)c(-c3cnn(CC(F)(F)F)c3)cn2)ccc1C#N [Example 316, 2-(2-fluoro-6-methoxyphenyl)-6-((4-((S)-3-hydroxypiperidin-1-yl)-5-(1-(2,2,2-trifluoroethyl)-1H-pyrazol-4-yl)pyridin-2-yl)amino)nicotinonitrile]",≤ 10 nM
2,"COc1cc(F)cc(F)c1-c1nc(Nc2cc(N3CC[C@@H](F)[C@H](N)C3)c(-c3cnn(C(F)F)c3)cn2)ccc1N [Example 216, N^2-(4-((3R,4R)-3-amino-4-fluoropiperidin-1-yl)-5-(1-(difluoromethyl)-1H-pyrazol-4-yl)pyridin-2-yl)-6-(2,4-difluoro-6-methoxyphenyl)pyridin-2,5-diamine hydrochloride]",≤ 10 nM
3,"COc1cccc(F)c1-c1nccc(Nc2cc(N3CCC[C@H](O)C3)c(-c3cnn(CC4CC4)c3)cn2)n1 [Example 17, (S)-1-(5-(1-(cyclopropylmethyl)-1H-pyrazol-4-yl)-2-((2-(2-fluoro-6-methoxyphenyl)pyrimidin-4-yl)amino)pyridin-4-yl)piperidin-3-ol]",≤ 10 nM
4,"COc1cccc(F)c1-c1cccc(Nc2cc(N3CCC[C@H](O)C3)c(-c3cnn(C4CCOCC4)c3)cn2)n1 [Example 35, (S)-1-(2-((6-(2-fluoro-6-methoxyphenyl)pyridin-2-yl)amino)-5-(1-(tetrahydro-2H-pyran-4-yl)-1H-pyrazol-4-yl)pyridin-4-yl)piperidin-3-ol]",≤ 10 nM
5,"COCCn1cc(-c2cnc(Nc3ccnc(-c4c(F)cccc4OC)n3)cc2N2CCC[C@H](N)C2)cn1 [Example 91, (S)-N-(4-(3-aminopiperidin-1-yl)-5-(1-(2-methoxyethyl)-1H-pyrazol-4-yl)pyridin-2-yl)-2-(2-fluoro-6-methoxyphenyl)pyrimidin-4-amine hydrochloride]",≤ 10 nM
6,"COc1cccc(F)c1-c1nccc(Nc2cc(N3CCC[C@H](O)C3)c(-c3ccc(C4CCOCC4)cc3)cn2)n1 [Example 18, (S)-1-(2-((2-(2-fluoro-6-methoxyphenyl)pyrimidin-4-yl)amino)-5-(4-(tetrahydro-2H-pyran-4-yl)phenyl)pyridin-4-yl)piperidin-3-ol]",≤ 10 nM
7,"COc1cc(F)cc(F)c1-c1nc(Nc2cc(N3CCC[C@H](O)C3)c(-c3cnn(C4CCOCC4)c3)cn2)ccc1[N+](=O)[O-] [Example 224, (3S)-1-(2-((6-(2,4-difluoro-6-methoxyphenyl)-5-nitropyridin-2-yl)amino)-5-(1-(tetrahydro-2H-pyran-4-yl)-1H-pyrazol-4-yl)pyridin-4-yl)piperidin-3-ol]",≤ 10 nM
8,"COc1cccc(F)c1-c1nccc(Nc2cc(N3CCC[C@H](N)C3)c(-c3ccc(C(=O)N[C@H]4CC[C@H](O)CC4)cc3)cn2)n1 [Example 289, 4-(4-((S)-3-aminopiperidin-1-yl)-6-((2-(2-fluoro-6-methoxyphenyl)pyrimidin-4-yl)amino)pyridin-3-yl)-N-((1r,4S)-4-hydroxycyclohexyl)benzamide hydrochloride]",≤ 10 nM
9,"2-(2-fluoro-6-methoxyphenyl)-N-(4-(2-methyl-2,8-diazaspiro[4.5]decan-8-yl)-5-(1-(2,2,2-trifluoroethyl)-1H-pyrazol-4-yl)pyridin-2-yl)pyrimidin-4-amine [Example 136]",≤ 10 nM
10,"COc1cccc(F)c1-c1nccc(Nc2cc(N3CCC[C@H](N)C3)c(-c3cnn(CC(F)F)c3)cn2)n1 [Example 134, (S)-N-(4-(3-aminopiperidin-1-yl)-5-(1-(2,2-difluoroethyl)-1H-pyrazol-4-yl)pyridin-2-yl)-2-(2-fluoro-6-methoxyphenyl)pyrimidin-4-amine hydrochloride]",≤ 10 nM
11,"COc1cccc(F)c1-c1nccc(Nc2cc(N3CC[C@@H](F)[C@H](N)C3)c(-c3cnn(C(F)F)c3)cn2)n1 [Example 208, N-(4-((3R,4R)-3-amino-4-fluoropiperidin-1-yl)-5-(1-(difluoromethyl)-1H-pyrazol-4-yl)pyridin-2-yl)-2-(2-fluoro-6-methoxyphenyl)pyrimidin-4-amine hydrochloride]",≤ 10 nM
12,"COc1cc(F)cc(F)c1-c1nc(Nc2cc(N3CCC[C@H](O)C3)c(-c3cnn(C(F)F)c3)cn2)ccc1[N+](=O)[O-] [Example 183, (3S)-1-(2-((6-(2,4-difluoro-6-methoxyphenyl)-5-nitropyridin-2-yl)amino)-5-(1-(difluoromethyl)-1H-pyrazol-4-yl)pyridin-4-yl)piperidin-3-ol]",≤ 10 nM
13,"COc1cccc(F)c1-c1nccc(Nc2cc(N3CCC[C@H](O)C3)c(-c3ccc(N4CCOCC4)nc3)cn2)n1 [Example 20, (S)-1-(6-((2-(2-fluoro-6-methoxyphenyl)pyrimidin-4-yl)amino)-6′-morpholino-[3,3′-bipyridin]-4-yl)piperidin-3-ol]",≤ 10 nM
14,"COc1cccc(F)c1-c1nc(Nc2cc(N3CC[C@@H](F)[C@H](O)C3)c(-c3cnn(C(F)F)c3)cn2)ccc1C#N [Example 331, 6-((5-(1-(difluoromethyl)-1H-pyrazol-4-yl)-4-((3R,4R)-4-fluoro-3-hydroxypiperidin-1-yl)pyridin-2-yl)amino)-2-(2-fluoro-6-methoxyphenyl)nicotinonitrile]",≤ 10 nM
15,"COc1cccc(F)c1-c1nccc(Nc2cc(N3CCC[C@H](N)C3)c(-c3ccc(C4CCNCC4)nc3)cn2)n1 [Example 248, (S)-4-(3-aminopiperidin-1-yl)-N-(2-(2-fluoro-6-methoxyphenyl)pyrimidin-4-yl)-6′-(piperidin-4-yl)-[3,3′-bipyridin]-6-amine hydrochloride]",≤ 10 nM
16,"COc1cccc(F)c1-c1nccc(Nc2cc(N3CCC[C@@H](C(F)F)C3)c(-c3cnn(C(F)F)c3)cn2)n1 [Example 273, (R)-N-(5-(1-(difluoromethyl)-1H-pyrazol-4-yl)-4-(3-(difluoromethyl)piperidin-1-yl)pyridin-2-yl)-2-(2-fluoro-6-methoxyphenyl)pyrimidin-4-amine]",≤ 10 nM
17,"COc1cccc(F)c1-c1nccc(Nc2cc(N3CCC[C@@H](N)C3)c(-c3cnn(CC(F)(F)F)c3)cn2)n1 [Example 77, (R)-N-(4-(3-aminopiperidin-1-yl)-5-(1-(2,2,2-trifluoroethyl)-1H-pyrazol-4-yl)pyridin-2-yl)-2-(2-fluoro-6-methoxyphenyl)pyrimidin-4-amine hydrochloride]",≤ 10 nM
18,"COc1cccc(F)c1-c1nccc(Nc2cc(N3CCC(C(C)(C)CO)CC3)c(-c3cnn(C4CCOCC4)c3)cn2)n1 [Example 67, 2-(1-(2-((2-(2-fluoro-6-methoxyphenyl)pyrimidin-4-yl)amino)-5-(1-(tetrahydro-2H-pyran-4-yl)-1H-pyrazol-4-yl)pyridin-4-yl)piperidin-4-yl)-2-methylpropan-1-ol]",≤ 10 nM
19,"COc1cccc(F)c1-c1nc(Nc2cc(N3CCC[C@H](N)C3)c(-c3cnn(CC(C)(C)O)c3)cn2)ccc1C#N [Example 319, 6-((4-((S)-3-aminopiperidin-1-yl)-5-(1-(2-hydroxy-2-methylpropyl)-1H-pyrazol-4-yl)pyridin-2-yl)amino)-2-(2-fluoro-6-methoxyphenyl)nicotinonitrile hydrochloride]",≤ 10 nM
